From ChEMBL document CHEMBL1221220, “Transport and signaling via the amino acid binding site of the yeast Gap1 amino acid transceptor” (Nat Chem Biol, 2009) come the findings set out here.

Each structure is given as a SMILES string. Substitutions are numbered along the chain they refer to. The source made the active and inactive calls. The rule behind the calls is not given here.

The test system of assay [1] is T1, General amino-acid permease GAP1 (Saccharomyces cerevisiae), P19145 [C397C].
T1 sequence (whole entry): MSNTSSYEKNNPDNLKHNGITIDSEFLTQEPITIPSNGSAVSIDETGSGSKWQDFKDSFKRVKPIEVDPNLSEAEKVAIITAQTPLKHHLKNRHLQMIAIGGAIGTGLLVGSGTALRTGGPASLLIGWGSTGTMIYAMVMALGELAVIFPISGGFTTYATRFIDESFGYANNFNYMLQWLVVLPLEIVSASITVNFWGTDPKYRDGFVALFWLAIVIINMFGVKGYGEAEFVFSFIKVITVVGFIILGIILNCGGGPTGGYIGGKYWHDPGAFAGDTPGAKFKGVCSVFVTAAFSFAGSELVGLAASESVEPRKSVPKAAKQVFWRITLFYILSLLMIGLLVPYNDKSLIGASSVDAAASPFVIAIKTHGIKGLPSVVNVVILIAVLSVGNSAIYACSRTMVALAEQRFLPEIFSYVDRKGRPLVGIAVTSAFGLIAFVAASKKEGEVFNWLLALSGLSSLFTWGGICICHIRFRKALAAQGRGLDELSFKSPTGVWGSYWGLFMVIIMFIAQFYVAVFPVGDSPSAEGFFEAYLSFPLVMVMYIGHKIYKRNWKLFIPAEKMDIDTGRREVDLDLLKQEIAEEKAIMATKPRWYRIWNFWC
The assay can be described thus: Activation of yeast Gap1 C397C mutant-mediated amino acid uptake at 10 mM.

Assay [2] concerns T2, General amino-acid permease GAP1 (Saccharomyces cerevisiae), P19145 [A393C].
T2 sequence (whole entry): T1 sequence (whole entry) with A393C
The assay can be described thus: Induction of yeast Gap1 A393C mutant-mediated trehalose activation at 10 mM.

For assay [3], the system named is T3, General amino-acid permease GAP1 (Saccharomyces cerevisiae), P19145 [A385C].
T3 sequence (whole entry): T1 sequence (whole entry) with A385C
The assay can be described thus: Induction of yeast Gap1 A385C mutant-mediated […] activation at 2 mM in presence of 10 mM MTSEA treated before compound addition.

The subject of assay [4] is T4, General amino-acid permease GAP1 (Saccharomyces cerevisiae), P19145 [R399C].
T4 sequence (whole entry): T1 sequence (whole entry) with R399C
Put plainly: Induction of yeast Gap1 R399C mutant-mediated amino acid uptake at 2 mM in presence of 10 mM MTSEA treated before compound addition.

With `NC(=O)NCCC[C@H](N)C(=O)O`, the outcome in assay [1] and in assay [2] was inactive. Besides, the inhibition result in assay [3] is “Active”. Also, the outcome in assay [4] was Active.
